{
  "source": "patent US4362746A",
  "about": "(priority 1981, dated 1982)",
  "key": {"[1]": {"details": "U.S. Pat. Nos. 3,932,512 and 4,046,811; cited from earlier work"}, "in vivo [2]": {"test": "in vivo", "details": "mouse"}, "Influenza B/MASS/66": {"tested_on": "Influenza B/MASS/66", "test": "In vitro anti-myxovirus assay, inhibition of hemadsorption, Influenza B/MASS/66 in G-2 cells", "assay_type": "cell-based", "details": "Influenza B virus, 56 TCID50", "procedure": "In preparing the compounds for testing, they were handled aseptically throughout. The compounds were dissolved in a minimum amount of a suitable solvent and the final dilutions were made up to the required volume in a complete culture medium used in assay and in concentration not exceeding the predetermined maximum non-toxic levels.\nThe antiviral assays were done in tissue cultures infected with an appropriate dose of an influenza virus.\nThe cell culture used in all in vitro anti-myxovirus assays was an established cell line of the human conjunctiva (G-2 cells). The cytotoxic studies of each of the compounds were performed prior to testing for antiviral activity to determine level of response of the cells to the potentially toxic action of the compounds.\nFor the antiviral assays the cells were grown in triplicates per dilution of compound in test tubes in a suitable medium. Immediately before use the initial medium was replaced with the one containing the test compound in an appropriate concentration. After virus was added at approximately 10 and 100 TCID50 dose levels the infected culture was incubated at 32° C. for a number of days. The medium was then drained, red blood cells added and after washing, the extent of hemadsorption evaluated. The percentage of inhibition of adsorption (a measure of antiviral activity) was then calculated. In all anti-myxovirus testing in vitro, as well as in vivo, amantadine (a known antiviral agent) was used as a reference standard."}, "in vitro": {"test": "in vitro", "details": "human, g-2 cells"}, "Influenza A2 /MTL/68": {"tested_on": "Influenza A2 /MTL/68", "test": "In vitro anti-myxovirus assay, inhibition of hemadsorption, Influenza A2/MTL/68 in G-2 cells", "assay_type": "cell-based, Influenza A2 /Montreal/68", "details": "for inhibition at 5 µg/mL: 5 ug/ml; for inhibition at 10 µg/mL: 10 ug/ml; for inhibition at 25 µg/mL: 25 ug/ml; for inhibition at 33 µg/mL: 33 ug/ml; for inhibition at 50 µg/mL: 50 ug/ml"}, "in vivo [3]": {"test": "in vivo", "details": "mouse", "remark": "listed apart in the source"}, "[4]": {"tested_on": "influenza virus A2 /Aichi/2/68", "assay_type": "in vivo, mice (Charles River, random bred white, female)", "details": "for Mean Survival Time / Survival % / Survival N (surviving animals / total infected) / Mean Survival Time Increase: 16 days; for Mean Survival Time Increase: vs virus only"}, "G-2 cells": {"tested_on": "G-2 cells", "details": "human, g-2 cells"}, "[5]": {"test": "Subacute toxicity in mice", "details": "mouse, in vivo"}, "mice [6]": {"tested_on": "mice", "test": "Subacute toxicity in mice", "details": "for Subacute LD0 (non-lethal dose): once a day, seventeenth day of treatment"}, "[7]": {"tested_on": "Influenza A/Swine/1976/31", "test": "microbe, parasite or virus in culture", "assay_type": "cell-based", "details": "in Sus scrofa"}, "Acute toxicity in mice": {"test": "Acute toxicity in mice", "details": "mouse, in vivo"}, "mice [8]": {"tested_on": "mice", "test": "Acute toxicity in mice", "details": "after 24 hours"}, "[9]": {"details": "Exp. 2, virus dose 2.0 LD50, 300 mg/kg/day IP"}, "[10]": {"details": "Exp. 3, virus dose 2.6 LD50, 200 mg/kg/day IP"}, "[11]": {"details": "Exp. 4, virus dose 3.0 LD50, 200 mg/kg/day IP"}},
  "note": "Where a name gives a salt, the structure may show the parent alone. Read-outs that look alike come from different tables or passages of the source.",
  "data": [
    {"smiles": "N[C@H]1C[C@H]2C[C@@H]1c1ccccc12", "note": "(relative stereo) [isomer with the amino substituent taking up the exo configuration]", "values": [
      {"measurement": "antiviral activity", "setting": "[1]", "result": "showed no antiviral activity"}
    ]},
    {"smiles": "N[C@@H]1C[C@H]2C[C@@H]1c1ccccc12", "note": "(relative stereo) [1,2,3,4-tetrahydro-1,4-methanonaphthalen-endo-2-amine]", "values": [
      {"measurement": "antiviral activity", "setting": "[1]", "result": "exhibited antiviral activity"}
    ]},
    {"smiles": "CN(C)C[C@H]1[C@@H](N)[C@@H]2C[C@H]1c1ccccc12", "note": "(relative stereo) [Compound B, endo-3-dimethylaminomethyl-endo-2-amino-1,2,3,4-tetrahydro-1,4-methanonaphthalene dihydrochloride]", "values": [
      {"measurement": "NOAEL at 24 h", "setting": "in vivo [2]; ip", "result": "> 750", "unit": "mg/kg/day"},
      {"measurement": "NOAEL at 24 h", "setting": "in vivo [2]; po", "result": "> 750", "unit": "mg/kg/day"},
      {"measurement": "inhibition at 10 µg/mL", "setting": "Influenza B/MASS/66; 10 ug/ml", "result": 0, "unit": "%"},
      {"measurement": "inhibition at 25 µg/mL", "setting": "Influenza B/MASS/66; 25 ug/ml", "result": 17, "unit": "%"},
      {"measurement": "inhibition at 33 µg/mL", "setting": "Influenza B/MASS/66; 33 ug/ml", "result": 43, "unit": "%"},
      {"measurement": "inhibition at 50 µg/mL", "setting": "Influenza B/MASS/66; 50 ug/ml", "result": 73, "unit": "%"},
      {"measurement": "MNTC", "setting": "in vitro; Cytotoxicity CTD0, maximal non-toxic concentration", "result": 50, "unit": "µg/mL"},
      {"measurement": "CC50", "setting": "in vitro; Cytotoxicity CTD50", "result": 100, "unit": "µg/mL"},
      {"measurement": "inhibition at 5 µg/mL", "setting": "Influenza A2 /MTL/68; 32 TCID50", "result": 0, "unit": "%"},
      {"measurement": "inhibition at 10 µg/mL", "setting": "Influenza A2 /MTL/68; 32 TCID50", "result": 30, "unit": "%"},
      {"measurement": "inhibition at 25 µg/mL", "setting": "Influenza A2 /MTL/68; 32 TCID50", "result": 78, "unit": "%"},
      {"measurement": "inhibition at 33 µg/mL", "setting": "Influenza A2 /MTL/68; 32 TCID50", "result": 93, "unit": "%"},
      {"measurement": "inhibition at 50 µg/mL", "setting": "Influenza A2 /MTL/68; 32 TCID50", "result": 93, "unit": "%"},
      {"measurement": "inhibition at 5 µg/mL", "setting": "Influenza A2 /MTL/68; 316 TCID50", "result": 0, "unit": "%"},
      {"measurement": "inhibition at 10 µg/mL", "setting": "Influenza A2 /MTL/68; 316 TCID50", "result": 0, "unit": "%"},
      {"measurement": "inhibition at 25 µg/mL", "setting": "Influenza A2 /MTL/68; 316 TCID50", "result": 70, "unit": "%"},
      {"measurement": "inhibition at 33 µg/mL", "setting": "Influenza A2 /MTL/68; 316 TCID50", "result": 76, "unit": "%"},
      {"measurement": "inhibition at 50 µg/mL", "setting": "Influenza A2 /MTL/68; 316 TCID50", "result": 83, "unit": "%"},
      {"measurement": "NOAEL at 408 h", "setting": "in vivo [3]; ip", "result": 400, "unit": "mg/kg/day"},
      {"measurement": "NOAEL at 408 h", "setting": "in vivo [3]; po", "result": 750, "unit": "mg/kg/day"},
      {"measurement": "Mean Survival Time", "setting": "[4]; [9]", "result": 14.5, "unit": "days"},
      {"measurement": "Survival %", "setting": "[4]; [9]", "result": 70, "unit": "%"},
      {"measurement": "Survival N (surviving animals / total infected)", "setting": "[4]; [9]", "result": "14/20"},
      {"measurement": "Mean Survival Time Increase", "setting": "[4]; [9]", "result": "+2.1 Days"},
      {"measurement": "Mean Survival Time", "setting": "[4]; [10]", "result": 13.2, "unit": "days"},
      {"measurement": "Survival %", "setting": "[4]; [10]", "result": 40, "unit": "%"},
      {"measurement": "Survival N (surviving animals / total infected)", "setting": "[4]; [10]", "result": "8/20"},
      {"measurement": "Mean Survival Time Increase", "setting": "[4]; [10]", "result": "+2.1 Days"},
      {"measurement": "Mean Survival Time", "setting": "[4]; [11]", "result": 13.5, "unit": "days"},
      {"measurement": "Survival %", "setting": "[4]; [11]", "result": 45, "unit": "%"},
      {"measurement": "Survival N (surviving animals / total infected)", "setting": "[4]; [11]", "result": "9/20"},
      {"measurement": "Mean Survival Time Increase", "setting": "[4]; [11]", "result": "+2.2 Days"},
      {"measurement": "antiviral effect against influenza virus infection", "setting": "[4]; administered intraperitoneally, […]", "result": "significant antiviral effect"},
      {"measurement": "Cytotoxicity CTD50", "setting": "G-2 cells", "result": "> 100", "unit": "µg/mL"},
      {"measurement": "LD50 at 408 h", "setting": "[5]; ip", "result": 500, "unit": "mg/kg"},
      {"measurement": "LD50 at 408 h", "setting": "[5]; po", "result": "> 750", "unit": "mg/kg"},
      {"measurement": "Subacute LD0 (non-lethal dose)", "setting": "mice [6]; IP", "result": 450, "unit": "mg/kg/day"},
      {"measurement": "Subacute LD0 (non-lethal dose)", "setting": "mice [6]; PO", "result": "> 750", "unit": "mg/kg/day"},
      {"measurement": "clinical sign of toxicity (weight)", "setting": "mice [6]; PO, subacute, at TD0 750", "result": "Slight loss of weight"},
      {"measurement": "inhibition at 5 µg/mL", "setting": "[7]; 316 TCID50, 5 ug/ml", "result": 0, "unit": "%"},
      {"measurement": "inhibition at 10 µg/mL", "setting": "[7]; 316 TCID50, 10 ug/ml", "result": 70, "unit": "%"},
      {"measurement": "inhibition at 25 µg/mL", "setting": "[7]; 316 TCID50, 25 ug/ml", "result": 92, "unit": "%"},
      {"measurement": "inhibition at 33 µg/mL", "setting": "[7]; 316 TCID50, 33 ug/ml", "result": 100, "unit": "%"},
      {"measurement": "LD50 at 24 h", "setting": "Acute toxicity in mice; ip", "result": 550, "unit": "mg/kg"},
      {"measurement": "LD50 at 24 h", "setting": "Acute toxicity in mice; po", "result": "> 750", "unit": "mg/kg"},
      {"measurement": "Acute LD0 (non-lethal dose)", "setting": "mice [8]; IP", "result": 450, "unit": "mg/kg/day"},
      {"measurement": "Acute LD0 (non-lethal dose)", "setting": "mice [8]; PO", "result": "> 750", "unit": "mg/kg/day"}
    ]}
  ]
}
